Among the data in ChEMBL document CHEMBL3044901, “Synthesis and insecticidal activity of N-oxydihydropyrroles: 4-hydroxy-3-mesityl-5,5-dimethyl derivatives with various substituents at the 1-position” (Biosci Biotechnol Biochem, 2002) are mortality and Phytotoxicity values, retold here.

Molecules are shown by their SMILES.

The test system of data set [1] is Myzus persicae. Description: Insecticidal activity against Myzus persicae (green peach aphid) infested Brassica campestris stems followed by leaf exposure to test compound spraying assessed as insect mortality at 1 ppm measured 5 days post compound treatment by contact exposure test. In kind it is functional. The conditions noted are these: 120 h.
Data set [2] has as its system Nilaparvata lugens. In words: Insecticidal activity against Nilaparvata lugens (brown planthopper) third-instar larvae contacted with rice stems pre-exposed to compound assessed as insect mortality at 1 ppm measured 5 days post insect release by contact exposure test. The conditions noted are these: 120 h. In kind it is functional.
A further data set concerns Oryza sativa. Description: Phytotoxicity against Oryza sativa exposed to compound spraying at […] measured 7 days post compound treatment by post-emergence glasshouse test. In kind it is organism-based. The conditions noted are these: in vivo, other, 168 h.
The test system of data set [3] is Myzus persicae. Description: Insecticidal activity against Myzus persicae (green peach aphid) infested Brassica campestris stems followed by leaf exposure to test compound spraying assessed as insect mortality at 10 ppm measured 5 days post compound treatment by contact exposure test. The conditions noted are these: 120 h. In kind it is functional.
In data set [4] the test system is Nilaparvata lugens. In words: Insecticidal activity against Nilaparvata lugens (brown planthopper) third-instar larvae contacted with rice stems pre-exposed to compound assessed as insect mortality at 10 ppm measured 5 days post insect release by contact exposure test. The conditions noted are these: 120 h. In kind it is functional.
For data set [5], the system named is Myzus persicae. Description: Insecticidal activity against Myzus persicae (green peach aphid) infested Brassica campestris stems followed by cut stem exposure to test compound assessed as insect mortality at 0.1 ppm measured 5 days post compound treatment by systemic exposure test. In kind it is functional. As to conditions: 120 h.
Data set [6] concerns Myzus persicae. Description: Insecticidal activity against Myzus persicae (green peach aphid) infested Brassica campestris stems followed by cut stem exposure to test compound assessed as insect mortality at 1 ppm measured 5 days post compound treatment by systemic exposure test. In kind it is functional. As to conditions: 120 h.
Another data set relates to Cucumis sativus. Description: Phytotoxicity against Cucumis sativus (cucumber) exposed to compound spraying at […] measured 7 days post compound treatment by post-emergence glasshouse test. In kind it is organism-based. The conditions noted are these: in vivo, other, 168 h.
Data set [7] concerns Nilaparvata lugens. Description: Insecticidal activity against Nilaparvata lugens (brown planthopper) third-instar larvae reared on rice seedlings assessed as insect mortality at 1 ppm measured 5 days post compound treatment by systemic exposure test. In kind it is functional. The conditions noted are these: 120 h.
In data set [8] the test system is Nilaparvata lugens. In words: Insecticidal activity against Nilaparvata lugens (brown planthopper) third-instar larvae reared on rice seedlings assessed as insect mortality at 10 ppm measured 5 days post compound treatment by systemic exposure test. In kind it is functional. The conditions noted are these: 120 h.

Consider `Cc1cc(C)c(C2=C(OC(=O)CC(C)(C)C)C(C)(C)N(O)C2=O)c(C)c1`, for which the mortality (in general, the share of the test organisms that died) at 1 ppm in the data set on Myzus persicae [1] amounted to 0%; in the data set with Nilaparvata lugens [2], 90%; in the data set on Myzus persicae [6], 0%; in the data set with Nilaparvata lugens [7], 60%. For the same compound, the Phytotoxicity is on record as 30% in the data set with Oryza sativa and 0% in the data set with Cucumis sativus. In addition, the mortality at 10 ppm is 0% with Myzus persicae [3], 100% in the data set with Nilaparvata lugens [4] and 90% in the data set with Nilaparvata lugens [8]. For the same compound, the mortality at 0.1 ppm in the data set with Myzus persicae [5] amounted to 0%.
Take `CON1C(=O)C(c2c(C)cc(C)cc2C)=C(OC(=O)CC(C)(C)C)C1(C)C`: the mortality at 1 ppm was determined as 0% in the data set on Myzus persicae [1], 90% in the data set on Nilaparvata lugens [2], 0% in the data set with Myzus persicae [6] and 30% in the data set on Nilaparvata lugens [7]. Further, the Phytotoxicity in the data set with Oryza sativa turned out to be 30%; with Cucumis sativus, 60%. Also, the mortality at 10 ppm worked out at 30% in the data set with Myzus persicae [3], 90% in the data set on Nilaparvata lugens [4] and 90% with Nilaparvata lugens [8]. The mortality at 0.1 ppm in the data set on Myzus persicae [5] stood at 0%.
For the compound `Cc1cc(C)c(C2=C(OC(=O)CC(C)(C)C)C(C)(C)N(OCC#N)C2=O)c(C)c1`, the mortality at 1 ppm amounted to 0% with Myzus persicae [1], 90% in the data set with Nilaparvata lugens [2], 100% in the data set on Myzus persicae [6] and 60% with Nilaparvata lugens [7]. The results for the Phytotoxicity in the data set on Oryza sativa and in the data set with Cucumis sativus were 0% and 60%, respectively. Besides, the mortality at 10 ppm in the data set with Myzus persicae [3], in the data set on Nilaparvata lugens [4] and in the data set with Nilaparvata lugens [8] was 100% each time. Also, the mortality at 0.1 ppm with Myzus persicae [5] worked out at 0%.
Consider `Cc1cc(C)c(C2=C(O)C(C)(C)N(OCc3ccccc3)C2=O)c(C)c1`, for which the mortality at 1 ppm in the data set with Myzus persicae [1] stood at 0%; in the data set with Nilaparvata lugens [2], 30%; with Myzus persicae [6] it was 0%; in the data set on Nilaparvata lugens [7], 30%. In addition, the Phytotoxicity is listed as 30% with Oryza sativa and 0% in the data set with Cucumis sativus. For the same compound, the mortality at 10 ppm in the data set with Myzus persicae [3] was 0%; in the data set on Nilaparvata lugens [4], 0%; in the data set on Nilaparvata lugens [8], 100%. Besides, in the data set on Myzus persicae [5], the mortality at 0.1 ppm came to 0%.
Turning to `COCCOCON1C(=O)C(c2c(C)cc(C)cc2C)=C(O)C1(C)C`, the mortality at 1 ppm in the data set on Myzus persicae [1] amounted to 0%; in the data set with Nilaparvata lugens [2], 30%; in the data set with Myzus persicae [6] it was 100%; in the data set on Nilaparvata lugens [7], 30%. In addition, the Phytotoxicity with Oryza sativa and with Cucumis sativus was 100% each time. For the same compound, the mortality at 10 ppm with Myzus persicae [3] turned out to be 90%; with Nilaparvata lugens [4], 60%; in the data set on Nilaparvata lugens [8], 100%. Moreover, the mortality at 0.1 ppm with Myzus persicae [5] turned out to be 100%.
